The values below come from patent publication US8058475B2, “Substituted cyclohexylmethyl compounds” (Gruenenthal GmbH, priority 2005, dated 2011).

Where two headings read alike, the source gives them in different places.

The target in this experiment is human μ-opiate receptor (Homo sapiens, UniProt P35372). Kind of experiment: Affinity for the human μ-opiate receptor ([3H]-naloxone displacement, SPA, CHO-K1 membrane preparation). Type of experiment: binding. The following applies: for inhibition at 1 µM: read-out: μ-Opioid receptor, % inhibition [1 μM]; for Ki: read-out: μ-Opioid receptor, Ki.
Chain of human μ-opiate receptor (P35372 whole entry): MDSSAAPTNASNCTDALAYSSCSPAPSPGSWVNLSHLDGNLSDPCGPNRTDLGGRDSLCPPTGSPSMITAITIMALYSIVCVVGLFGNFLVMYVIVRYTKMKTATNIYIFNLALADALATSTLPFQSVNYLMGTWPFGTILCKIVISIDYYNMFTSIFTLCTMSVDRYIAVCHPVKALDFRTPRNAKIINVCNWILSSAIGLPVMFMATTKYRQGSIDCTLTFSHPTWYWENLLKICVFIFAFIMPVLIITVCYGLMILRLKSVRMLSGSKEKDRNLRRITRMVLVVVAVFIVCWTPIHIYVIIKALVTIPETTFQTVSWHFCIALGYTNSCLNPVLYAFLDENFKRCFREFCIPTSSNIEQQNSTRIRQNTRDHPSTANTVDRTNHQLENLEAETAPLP
The mark [1] stands for this setting: 1 μM test substance, inhibition of specific [3H]-naloxone binding.

For `COc1cccc(CC2(O)CCC(C(c3cccc(F)c3)N(C)C)CC2)c1` (stereo not drawn) [compound 156, 4-[dimethylamino-(3-fluoro-phenyl)-methyl]-1-(3-methoxy-benzyl)-cyclohexanol], under setting [1], the inhibition – broadly, the percentage by which the read-out fell short of the control – at 1 µM was determined as 73%.

As to `Cc1ccccc1C(=O)NCCC1CCC(C(c2ccccc2)N(C)C)CC1` (single isomer, unassigned) [compound 417, N-{2-[4-(dimethylamino-phenyl-methyl)-cyclohexyl]-ethyl}-2-methyl-benzamide], the inhibition at 1 µM was determined as 91% and the Ki – broadly, a dissociation constant, usually derived from enzyme kinetics or from competition with a known ligand – came out at 31 nM.

Consider `CN(C)C(c1ccccc1)C1CCC(NC(=O)Cc2cccs2)CC1` (stereo not drawn) [compound 255, N-[4-(dimethylamino-phenyl-methyl)-cyclohexyl]-2-thiophen-2-yl-acetamide], for which the inhibition at 1 µM worked out at 80% and the Ki came to 46 nM.

Consider `CC(Oc1ccccc1)C(=O)NCC1CCC(C(c2cccc(F)c2)N(C)C)CC1` (single isomer, unassigned) [compound 341, N-{4-[dimethylamino-(3-fluoro-phenyl)-methyl]-cyclohexylmethyl}-2-phenoxy-propionamide], for which the Ki was found to be 13 nM.

As to `CN(C)C(c1ccc(F)cc1)C1CCC(NC(=O)c2ccc(F)cc2)CC1` (stereo not drawn) [compound 262, N-{4-[dimethylamino-(4-fluoro-phenyl)-methyl]-cyclohexyl}-4-fluoro-benzamide], the inhibition at 1 µM was 78% and the Ki came to 96 nM.

`CN(C)C(c1ccccc1)C1CCC(CCNC(=O)c2cccc(Cl)c2)CC1` (single isomer, unassigned) [compound 398, 3-chloro-N-{2-[4-(dimethylamino-phenyl-methyl)-cyclohexyl]-ethyl}-benzamide]: the Ki is 7.4 nM. In addition, under “1 µM”, the “μ-Opioid receptor, % inhibition [1 μM]” value is on record as 101%.

For the compound `CN(C)C(c1ccccc1)C1CCC(NC(=O)c2cc(F)c(F)cc2F)CC1` (stereo not drawn) [compound 196, N-[4-(dimethylamino-phenyl-methyl)-cyclohexyl]-2,4,5-trifluoro-benzamide], the inhibition at 1 µM was determined as 96% and the Ki was found to be 19 nM.

Regarding `CC(Oc1ccccc1)C(=O)NCC1CCC(C(c2cccc(F)c2)N(C)C)CC1` (single isomer, unassigned) [compound 332, N-{4-[dimethylamino-(3-fluoro-phenyl)-methyl]-cyclohexylmethyl}-2-phenoxy-propionamide], the inhibition at 1 µM was 93% and the Ki was 20 nM.

Regarding `CC(Oc1ccccc1)C(=O)NC1CCC(C(c2ccccc2)N(C)C)CC1` (stereo not drawn) [compound 230, N-[4-(dimethylamino-phenyl-methyl)-cyclohexyl]-2-phenoxy-propionamide], the inhibition at 1 µM came out at 86% and the inhibition constant Ki stood at 21 nM.

`CN(C)C(c1ccccc1)C1CCC(CCNC(=O)c2ccc(C#N)cc2)CC1` (stereo not drawn) [compound 421, 4-cyano-N-{2-[4-(dimethylamino-phenyl-methyl)-cyclohexyl]-ethyl}-benzamide]: the inhibition at 1 µM is 80% and the Ki amounted to 91 nM.

For the compound `CSc1ncccc1C(=O)NCC1CCC(C(c2ccc(Cl)cc2)N(C)C)CC1` (stereo not drawn) [compound 315, N-{4-[(4-chloro-phenyl)-dimethylamino-methyl]-cyclohexylmethyl}-2-methyl-sulfanyl-nicotinamide], the “μ-Opioid receptor, % inhibition [1 μM]” value is recorded as 97% and the Ki turned out to be 160 nM.

As for `Cc1ccc(Oc2ncccc2C(=O)NCC2CCC(C(c3cccs3)N(C)C)CC2)cc1` (single isomer, unassigned) [compound 389, N-[4-(dimethylamino-thiophen-2-yl-methyl)-cyclohexylmethyl]-2-p-tolyloxy-nicotinamide], the inhibition at 1 µM was found to be 81% and the Ki was found to be 58 nM.

For the compound `Cc1cccc(C(=O)NCC2CCC(C(c3ccccc3)N(C)C)CC2)c1` (stereo not drawn) [compound 362, N-[4-(dimethylamino-phenyl-methyl)-cyclohexylmethyl]-3-methyl-benzamide], the inhibition at 1 µM was 85% and the Ki is 60 nM.

Take `CC(C)S(=O)(=O)c1csc(C(=O)NC2CCC(C(c3cccs3)N(C)C)CC2)c1Cl` (stereo not drawn) [compound 221, 3-chloro-4-(propan-2-sulfonyl)-thiophene-2-carboxylic acid [4-(dimethylamino-thiophen-2-yl-methyl)-cyclohexyl]-amide]: the inhibition at 1 µM amounted to 88% and the Ki was found to be 29 nM.

With `CN(C)C(c1ccccc1)C1CCC(CNC(=O)c2cccnc2Oc2ccc(Cl)cc2)CC1` (single isomer, unassigned) [compound 360, 2-(4-chloro-phenoxy)-N-[4-(dimethylamino-phenyl-methyl)-cyclohexylmethyl]-nicotinamide], the inhibition at 1 µM came to 86% and the Ki is 35 nM.

As for `CN(C)C(c1cccs1)C1CCC(CCNC(=O)c2ccccc2F)CC1` (stereo not drawn) [compound 428, N-{2-[4-(dimethylamino-thiophen-2-yl-methyl)-cyclohexyl]-ethyl}-2-fluoro-benzamide], the inhibition at 1 µM worked out at 97% and the Ki was 5.4 nM.

In the case of `CCCCCCC1(O)CCC(C(c2ccc(Cl)cc2)N(C)C)CC1` (stereo not drawn) [compound 168, 4-[(4-chloro-phenyl)-dimethylamino-methyl]-1-hexyl-cyclohexanol], under setting [1], the inhibition at 1 µM was 58%.

For `COc1cccc(C2(O)CCC(C(c3ccc(Cl)cc3)N(C)C)CC2)c1` (stereo not drawn) [compound 164, 4-[(4-chloro-phenyl)-dimethylamino-methyl]-1-(3-methoxy-phenyl)-cyclohexanol], the inhibition at 1 µM under setting [1] was determined as 58%.

As for `CN(C)C(c1ccccc1)C1CCC(CNC(=O)c2ccc(Cl)cc2Cl)CC1` (stereo not drawn) [compound 361, 2,4-dichloro-N-[4-(dimethylamino-phenyl-methyl)-cyclohexylmethyl]-benzamide], the inhibition at 1 µM came to 85% and the Ki worked out at 42 nM.

Take `Cc1cc(C2(O)CCC(C(c3ccccc3)N(C)C)CC2)ccc1F` (stereo not drawn) [compound 151, 4-(dimethylamino-phenyl-methyl)-1-(4-fluoro-3-methyl-phenyl)-cyclohexanol]: the inhibition at 1 µM under setting [1] turned out to be 71%.

Consider `COc1cccc(OC)c1C(=O)NC1CCC(C(c2ccccc2)N(C)C)CC1` (stereo not drawn) [compound 287, N-[4-(dimethylamino-phenyl-methyl)-cyclohexyl]-2,6-dimethoxy-benzamide], for which the inhibition at 1 µM was 71% and the Ki was 150 nM.

In the case of `CCn1nc(C)c(Br)c1C(=O)NCC1CCC(C(c2cccs2)N(C)C)CC1` (stereo not drawn) [compound 375, 4-bromo-2-ethyl-5-methyl-2H-pyrazole-3-carboxylic acid [4-(dimethylamino-thiophen-2-yl-methyl)-cyclohexylmethyl]-amide], the inhibition at 1 µM worked out at 84%.

For the compound `COc1ccc(C(=O)NC2CCC(C(c3ccccc3)N(C)C)CC2)c(OC)c1` (stereo not drawn) [compound 216, N-[4-(dimethylamino-phenyl-methyl)-cyclohexyl]-2,4-dimethoxy-benzamide], the inhibition at 1 µM stood at 90% and the Ki was 56 nM.

In the case of `CN(C)C(c1cccs1)C1CCC(CCNC(=O)c2cc(F)c(Cl)cc2Cl)CC1` (stereo not drawn) [compound 440, 2,4-dichloro-N-{2-[4-(dimethylamino-thiophen-2-yl-methyl)-cyclohexyl]-ethyl}-5-fluoro-benzamide], the inhibition at 1 µM was 95% and the Ki came out at 15 nM.

With `CN(C)C(c1ccccc1)C1CCC(NC(=O)c2cc(F)cc(C(F)(F)F)c2)CC1` (stereo not drawn) [compound 190, N-[4-(dimethylamino-phenyl-methyl)-cyclohexyl]-3-fluoro-5-trifluoromethyl-benzamide], the inhibition at 1 µM turned out to be 99% and the Ki is 25 nM.

For the compound `CN(C)C(c1ccccc1)C1CCC(NC(=O)c2cccc([N+](=O)[O-])c2)CC1` (stereo not drawn) [compound 275, N-[4-(dimethylamino-phenyl-methyl)-cyclohexyl]-3-nitro-benzamide], the inhibition at 1 µM is 74% and the inhibitory constant (Ki) came to 100 nM.

Take `CCSc1ncccc1C(=O)NCC1CCC(C(c2cccc(F)c2)N(C)C)CC1` (stereo not drawn) [compound 388, N-{4-[dimethylamino-(3-fluoro-phenyl)-methyl]-cyclohexylmethyl}-2-ethylsulfanyl-nicotinamide]: the inhibition at 1 µM was found to be 81% and the Ki was 36 nM.

As to `CN(C)C(c1ccccc1)C1CCC(CCNC(=O)C(c2ccccc2)c2ccccc2)CC1` (stereo not drawn) [compound 448, N-{2-[4-(dimethylamino-phenyl-methyl)-cyclohexyl]-ethyl}-2,2-diphenyl-acetamide], the inhibition at 1 µM amounted to 95% and the inhibition constant (Ki) was 33 nM.

Take `CN(C)C(CCc1ccccc1)C1CCC(NC(=O)c2ccc(F)cc2)CC1` (stereo not drawn) [compound 258, N-[4-(1-dimethylamino-3-phenyl-propyl)-cyclohexyl]-4-fluoro-benzamide]: the inhibition at 1 µM stood at 79% and the inhibition constant (Ki) was determined as 68 nM.

As to `CN(C)C(c1ccccc1)C1CCC(NC(=O)C2CCCCC2)CC1` (stereo not drawn) [compound 272, cyclohexanecarboxylic acid [4-(dimethylamino-phenyl-methyl)-cyclohexyl]-amide], the inhibition at 1 µM came out at 75% and the Ki is 90 nM.

For `CN(C)C(c1ccccc1)C1CCC(CNC(=O)c2c(Cl)cc(Cl)cc2Cl)CC1` (stereo not drawn) [compound 338, 2,4,6-trichloro-N-[4-(dimethylamino-phenyl-methyl)-cyclohexylmethyl]-benzamide], the inhibition at 1 µM is 91% and the Ki is 28 nM.

`CN(C)C(CCc1ccccc1)C1CCC(NC(=O)c2ccc(F)c(C(F)(F)F)c2)CC1` (single isomer, unassigned) [compound 227, N-[4-(1-dimethylamino-3-phenyl-propyl)-cyclohexyl]-4-fluoro-3-trifluoromethyl-benzamide]: the Ki was determined as 58 nM. In addition, where the note is “1 µM”, the “μ-Opioid receptor, % inhibition [1 μM]” value was determined as 87%.

As for `CN(C)C(c1ccccc1)C1CCC(CNC(=O)c2cccnc2Cl)CC1` (stereo not drawn) [compound 355, 2-chloro-N-[4-(dimethylamino-phenyl-methyl)-cyclohexylmethyl]-nicotinamide], the inhibition at 1 µM came out at 86% and the Ki was determined as 120 nM.
